Here are results for 3 compounds from paper PMC12455572, “Amphipathic Proline-Rich Cell Penetrating Peptides for Targeting Mitochondria” (ACS Chemical Biology, 2025).

Data set [1] relates to MCF-7 cells. Briefly: Flow cytometry at 4 °C versus 37 °C. It counts as cell-based. The conditions noted are these: MCF-7, 20 µM, 1 h. Here is the method: MCF-7 cells were seeded in a 24-well plate at 150′000 cells/well in DMEM (1 mL, 10% FCS), and allowed to adhere overnight. The medium was removed, the cells were washed with PBS (250 μL, 1x) and incubated with the peptide solution at 20 μM, 10 μM, 5 μM or 2.5 μM in medium (200 μL, 1% FCS) for 1 h at 37 °C. The medium was removed, and the cells were washed with PBS (250 μL, 2x). Trypsin (100 μL, 0.05%) was added, and the cells were incubated at 37 °C for 5 min. D-PBS with Mg^2+ and Ca^2+ (300 μL, 4 °C) was added, the cells were resuspended and centrifuged for 5 min at 0.4 rcf. The supernatant was carefully removed, and the cells were resuspended in a solution of PBS containing 1.5 μM PI and 2 mM EDTA (400 μL at 4 °C). […] Each sample contained 10′000 cells and was analyzed in triplicate. […]
Figure S9. […] After 1 h incubation at 4 °C, the fluorescence signal is in case of most of the peptides lower, indicating an endocytosis pathway. […]
of different entry mechanisms. The indicated P-values were determined using one-way ANOVA followed by Tukey’s […]
(also on this page, place not known: µM µM °C µM °C (ChaZZ) µM °C (ChaZZ) µM °C (ChaZZ) µM °C 20000Mean fluorescence intensity (ChaZZ)3 °CCells °C (ChaZZ) µM °C (ChaZZ) µM °C (ChaZZ) 3-Cha µM °C (ChaZZ) 3-Cha µM °C (ChaZZ) 3-Cha µM °C (ChaZZ) 3-Cha µM °C (ChaZZ) 3-Cha µM °C (ChaZZ) 3-Cha µM °C 30000Mean fluorescence intensity)
In general terms: In flow cytometry, cells or beads pass a laser one at a time.

A short description of data set [2]: RP-HPLC retention time as estimate of hydrophobicity (C4 column, 30 to 55% B). The class given is physicochemical. The conditions noted are these: RP-HPLC used as estimate of hydrophobicity, A H2O/MeCN/TFA (1000/10/1), gradient 30 to 55% B, 20 min, CF-Ahx-labelled peptides. Here is the method:
2 (A) General structure of amphipathic peptides, CF-Ahx-[XZZ]3-NH2; CF = 5(6)-Carboxyfluorescein, Ahx = aminohexanoic acid. (B) CD spectra of the peptides, recorded at 50 μM in H2O, pH 5.7. For a comparison with a spectrum of a Gup oligomer, see Figure S2. (C) Retention time of the peptides measured by RP-HPLC on a C4 column with a mobile phase from 30 to 55% of MeCN in H2O/MeCN/TFA (1000/10/1). (D) Representative confocal microscopic images of live MCF-7 cells, incubated for 1 h at 37 °C with peptide solutions at a concentration of 10 μM in DMEM + 1% FBS (left, in green). Mitochondria were stained with Deep Red MitoTracker (middle, in red) and merged images (right, orange/yellow indicating colocalization) with Hoechst33342 stain (blue) for the nucleus. TEXT PRINTED IN THE PICTURE: (C) (ValZZ)3: tr(min): 1.8 | (C) (PheZZ)3: tr(min): 2.9 | (C) (TrpZZ)3: tr(min): 3.2 | (C) (ChaZZ)3: tr(min): 5.4 DOUBTS OF THE COPYIST ABOUT THIS PICTURE: Panel C, column head: the small lowered letter after t is read as r (tr), not certain
The Gup residues should preorganize the peptides into a PPII helix with one hydrophobic and two cationic edges along the PPII helical peptide. Indeed, circular dichroism (CD) spectra of the peptides display the characteristic minimum and maximum at ∼206 nm and ∼224 nm, respectively, of a PPII helix (Figure B). The spectra imply that the non-proline residues in every third position are tolerated within the helical structure. We used reverse phase high performance liquid chromatography (RP-HPLC) for an estimate of the hydrophobicity of the peptides. On a C4 column using two mobile phases A (H2O/MeCN/TFA (1000/10/1)) and B (MeCN) with a gradient of 30% to 55% B, all peptides eluted over 20 min but with different retention times (Figure C). The Cha-containing peptide had the longest retention time, indicating the highest hydrophobicity within the series, followed by the Trp-, Phe-, and Val-peptides.

Where a SMILES comes first, the peptide text is derived from it. [ ]: non-standard residue; d: D form. The star is where a group is joined. 5FAM = O=C1OC2(c3ccc(O)cc3Oc3cc(O)ccc32)c2ccc(C(=O)*)cc21; Pro(cis-4-guanidino) = NC(N)=N[C@@H]1CN[C@H](C(=O)O)C1; Cha = N[C@@H](CC1CCCCC1)C(=O)O; Ahx = NCCCCCC(=O)O

Consider CF-Ahx-(ChaZZ)3-NH2, for which the “Fluorescence signal after incubation at 4 °C compared with 37 °C (FACS)” value in data set [1] is “close-to-level signal”.

For the compound CF-Ahx-(ChaZZ)2-Cha-NH2, the Retention time tr in data set [2] was 8.1 min.

As to `N=C(N)N[C@H]1C[C@@H](C(=O)N2C[C@@H](NC(=N)N)C[C@H]2C(=O)N[C@@H](CC2CCCCC2)C(=O)N2C[C@@H](NC(=N)N)C[C@H]2C(=O)N2C[C@@H](NC(=N)N)C[C@H]2C(=O)N[C@@H](CC2CCCCC2)C(=O)N2C[C@@H](NC(=N)N)C[C@H]2C(=O)N2C[C@@H](NC(=N)N)C[C@H]2C(=O)N[C@@H](CC2CCCCC2)C(N)=O)N(C(=O)[C@H](CC2CCCCC2)NC(=O)CCCCCNC(=O)c2ccc3c(c2)C(=O)OC32c3ccc(O)cc3Oc3cc(O)ccc32)C1` [(ChaZZ)3-Cha, CF-Ahx-(ChaZZ)3-Cha-NH2] ({5FAM-Ahx}-[Cha][Pro(cis-4-guanidino)][Pro(cis-4-guanidino)][Cha][Pro(cis-4-guanidino)][Pro(cis-4-guanidino)][Cha][Pro(cis-4-guanidino)][Pro(cis-4-guanidino)][Cha]-NH2), the Retention time tr in data set [2] is reported as 8.5 min.
